pIC50: −log10 of the molar value.
Test system: K98450-129-R-PDC multicell spheroids, viability
Assay: Anticancer human tumor K98450-129-R-PDC patient-derived colon adenocarcinoma cell line growth inhibition [PI3K]
Settings: for pIC50: curve of first compound; for viability, T/C: stronger effect = lower value
In short: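 We assembled tumor spheroids that included a stromal compartment of HUVEC and MSCs, then exposed them to targeted agents alone and together with PI3K pathway inhibitors. Concentration series descended by half-log from clinically achievable Cmax levels. Viability served as the endpoint.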

[1] = second compound 0.0316 µM, first compound 0.0316 µM
[2] = second compound 0.0316 µM, first compound 0.1 µM
[3] = second compound 0.0316 µM, first compound 0.316 µM
[4] = second compound 0.0316 µM, first compound 1 µM
[5] = second compound 0.1 µM, first compound 0.0316 µM
[6] = second compound 0.1 µM, first compound 0.1 µM
[7] = second compound 0.1 µM, first compound 0.316 µM
[8] = second compound 0.1 µM, first compound 1 µM
[9] = second compound 0.316 µM, first compound 0.0316 µM
[10] = second compound 0.316 µM, first compound 0.1 µM
[11] = second compound 0.316 µM, first compound 0.316 µM
[12] = second compound 0.316 µM, first compound 1 µM
[13] = second compound 1 µM, first compound 0.0316 µM
[14] = second compound 1 µM, first compound 0.1 µM
[15] = second compound 1 µM, first compound 0.316 µM
[16] = second compound 1 µM, first compound 1 µM
[17] = second compound 3.16 µM, first compound 0.0316 µM
[18] = second compound 3.16 µM, first compound 0.1 µM
[19] = second compound 3.16 µM, first compound 0.316 µM
[20] = second compound 3.16 µM, first compound 1 µM
[21] = second compound 10 µM, first compound 0.0316 µM
[22] = second compound 10 µM, first compound 0.1 µM
[23] = second compound 10 µM, first compound 0.316 µM
[24] = second compound 10 µM, first compound 1 µM
[25] = second compound 0.0316 µM, first compound 0.00316 µM
[26] = second compound 0.0316 µM, first compound 0.01 µM
[27] = second compound 0.1 µM, first compound 0.00316 µM
[28] = second compound 0.1 µM, first compound 0.01 µM
[29] = second compound 0.316 µM, first compound 0.00316 µM
[30] = second compound 0.316 µM, first compound 0.01 µM
[31] = second compound 1 µM, first compound 0.00316 µM
[32] = second compound 1 µM, first compound 0.01 µM
[33] = second compound 3.16 µM, first compound 0.00316 µM
[34] = second compound 3.16 µM, first compound 0.01 µM
[35] = second compound 10 µM, first compound 0.00316 µM
[36] = second compound 10 µM, first compound 0.01 µM
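Further: spheroids exposed to agents for seven days before read-out.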

CC(C)NCC(C(=O)N1CCN(c2ncnc3c2C(C)CC3O)CC1)c1ccc(Cl)cc1 (stereo unspecified) + CC(Nc1ncnc2nc[nH]c12)c1cc2cccc(Cl)c2c(=O)n1-c1ccccc1
pIC50 (second compound 0.0316 µM): < 5.00
pIC50 (second compound 0.1 µM): < 5.00
pIC50 (second compound 0.316 µM): < 5.00
pIC50 (second compound 1 µM): < 5.00
pIC50 (second compound 3.16 µM): < 5.00
pIC50 (second compound 10 µM): < 5.00
viability, T/C [1]: 98.2%
viability, T/C [2]: 107%
viability, T/C [3]: 101%
viability, T/C [4]: 96.4%
viability, T/C (second compound 0.0316 µM, first compound 3.16 µM): 102%
viability, T/C (second compound 0.0316 µM, first compound 10 µM): 98.5%
viability, T/C [5]: 111%
viability, T/C [6]: 115%
viability, T/C [7]: 99.3%
viability, T/C [8]: 89.6%
viability, T/C (second compound 0.1 µM, first compound 3.16 µM): 94.9%
viability, T/C (second compound 0.1 µM, first compound 10 µM): 83.4%
viability, T/C [9]: 96.6%
viability, T/C [10]: 97.2%
viability, T/C [11]: 87.1%
viability, T/C [12]: 105%
viability, T/C (second compound 0.316 µM, first compound 3.16 µM): 105%
viability, T/C (second compound 0.316 µM, first compound 10 µM): 102%
viability, T/C [13]: 106%
viability, T/C [14]: 100%
viability, T/C [15]: 104%
viability, T/C [16]: 98.4%
viability, T/C (second compound 1 µM, first compound 3.16 µM): 115%
viability, T/C (second compound 1 µM, first compound 10 µM): 101%
viability, T/C [17]: 79.2%
viability, T/C [18]: 88.4%
viability, T/C [19]: 101%
viability, T/C [20]: 99.2%
viability, T/C (second compound 3.16 µM, first compound 3.16 µM): 97.5%
viability, T/C (second compound 3.16 µM, first compound 10 µM): 85.7%
viability, T/C [21]: 110%
viability, T/C [22]: 89.5%
viability, T/C [23]: 77.5%
viability, T/C [24]: 88.6%
viability, T/C (second compound 10 µM, first compound 3.16 µM): 103%
viability, T/C (second compound 10 µM, first compound 10 µM): 87.2%

CCN1CCN(Cc2ccc(Nc3ncc(F)c(-c4cc(F)c5nc(C)n(C(C)C)c5c4)n3)nc2)CC1 + CC(Nc1ncnc2nc[nH]c12)c1cc2cccc(Cl)c2c(=O)n1-c1ccccc1
pIC50 (second compound 0.0316 µM): < 6.00
pIC50 (second compound 0.1 µM): < 6.00
pIC50 (second compound 0.316 µM): < 6.00
pIC50 (second compound 1 µM): < 6.00
pIC50 (second compound 3.16 µM): < 6.00
pIC50 (second compound 10 µM): < 6.00
viability, T/C [25]: 111%
viability, T/C [26]: 102%
viability, T/C [1]: 109%
viability, T/C [2]: 83.5%
viability, T/C [3]: 81.6%
viability, T/C [4]: 87%
viability, T/C [27]: 106%
viability, T/C [28]: 107%
viability, T/C [5]: 91.9%
viability, T/C [6]: 87.7%
viability, T/C [7]: 87%
viability, T/C [8]: 95%
viability, T/C [29]: 101%
viability, T/C [30]: 108%
viability, T/C [9]: 94.6%
viability, T/C [10]: 90.3%
viability, T/C [11]: 89.7%
viability, T/C [12]: 89.1%
viability, T/C [31]: 93.1%
viability, T/C [32]: 92.5%
viability, T/C [13]: 95.9%
viability, T/C [14]: 89.4%
viability, T/C [15]: 84.8%
viability, T/C [16]: 102%
viability, T/C [33]: 95.1%
viability, T/C [34]: 91.6%
viability, T/C [17]: 81.1%
viability, T/C [18]: 90.8%
viability, T/C [19]: 82.4%
viability, T/C [20]: 83.2%
viability, T/C [35]: 86%
viability, T/C [36]: 83.5%
viability, T/C [21]: 81.9%
viability, T/C [22]: 82.5%
viability, T/C [23]: 86.1%
viability, T/C [24]: 78.2%

Cn1ncnc1[C@H]1c2n[nH]c(=O)c3cc(F)cc(c23)N[C@@H]1c1ccc(F)cc1 + CC(Nc1ncnc2nc[nH]c12)c1cc2cccc(Cl)c2c(=O)n1-c1ccccc1
pIC50 (second compound 0.0316 µM): < 7.00
pIC50 (second compound 0.1 µM): < 7.00
pIC50 (second compound 0.316 µM): < 7.00
pIC50 (second compound 1 µM): < 7.00
pIC50 (second compound 3.16 µM): < 7.00
pIC50 (second compound 10 µM): < 7.00
viability, T/C (second compound 0.0316 µM, first compound 0.000316 µM): 108%
viability, T/C (second compound 0.0316 µM, first compound 0.001 µM): 118%
viability, T/C [25]: 111%
viability, T/C [26]: 111%
viability, T/C [1]: 97.9%
viability, T/C [2]: 87.2%
viability, T/C (second compound 0.1 µM, first compound 0.000316 µM): 110%
viability, T/C (second compound 0.1 µM, first compound 0.001 µM): 106%
viability, T/C [27]: 97.5%
viability, T/C [28]: 107%
viability, T/C [5]: 104%
viability, T/C [6]: 114%
viability, T/C (second compound 0.316 µM, first compound 0.000316 µM): 109%
viability, T/C (second compound 0.316 µM, first compound 0.001 µM): 97.5%
viability, T/C [29]: 112%
viability, T/C [30]: 98.3%
viability, T/C [9]: 108%
viability, T/C [10]: 85.5%
viability, T/C (second compound 1 µM, first compound 0.000316 µM): 100%
viability, T/C (second compound 1 µM, first compound 0.001 µM): 97.5%
viability, T/C [31]: 93.8%
viability, T/C [32]: 83.6%
viability, T/C [13]: 94.5%
viability, T/C [14]: 95.8%
viability, T/C (second compound 3.16 µM, first compound 0.000316 µM): 103%
viability, T/C (second compound 3.16 µM, first compound 0.001 µM): 100%
viability, T/C [33]: 99.3%
viability, T/C [34]: 104%
viability, T/C [17]: 102%
viability, T/C [18]: 88%
viability, T/C (second compound 10 µM, first compound 0.000316 µM): 86.5%
viability, T/C (second compound 10 µM, first compound 0.001 µM): 120%
viability, T/C [35]: 88.2%
viability, T/C [36]: 87.8%
viability, T/C [21]: 98.3%
viability, T/C [22]: 91.8%
